Reference: patent publication US20070166547A1, “Use of a layer consisting of hydrophobic linear, or two-dimensional polycyclic aromatics as a barrier layer or an encapsulation and electric components constructed with a layer of this type and comprising organic polymers” (priority 2003, published 2007)

How the values were obtained:
[1] = tested on: adenosine-sensitive receptors of thrombocytes; assay: ADP-induced aggregation of thrombocytes in vitro (Born method); type: cell-based, rabbit; details: 3 min incubation, ADP 10^−5 M
Description: The compounds according to the invention were studied for the effect of aggregation of thrombocytes induced by a preliminary introduction of a solution of an aggregation inductor with a competing introduction of the compounds according to the invention.
The aggregation of thrombocytes was studied by the Born method based on determination of the changes in the optical density of plasma enriched with thrombocytes after its incubation with an aggregation inductor.
Adenozinediphosphoric acid (ADP) was selected as an aggregation inductor, which in fact is an aggregation generator. Use was made of a sample (registration number 885) of the Sigma Diagnostics Company (USA) in final concentration of 10^−5 M.
The experiments were carried out on male rabbits of the “Chinchilla” breed having a mass of 2.7±0.3 kg. 18-24 hours prior to the experiment they were deprived of feed while preserving free access to water.
To obtain plasma enriched with thrombocytes, blood was taken from a cut of a marginal vein of the rabbit ear, the sample was stabilized with 3.8% of sodium citrate solution in a ratio of 9:1 and centrifuged at 200 g (1000 rev/min) for 10 minutes. The top supernatant layer enriched with thrombocytes was transferred by an automatic dropper into a silicone test tube and kept at 37° C. The plasma enriched with thrombocytes contained, on the average, […]. If this content exceeded the specified 3×10^8 blood platelets in 1 liter, this sample was diluted to the necessary concentration with plasma deprived of thrombocytes, which was obtained by centrifuging blood at 650 g during 10 minutes.
The measurements of the optical density of the samples were made on two-channel aggregometer of the “Chronolog” Company (USA). A flask containing 490 mkl of plasma rich with thrombocytes was placed in a device, into which a magnetic agitator covered with Teflon was lowered. The index of maximum amplitude of aggregation (MA) in percent of a fall of the plasma optical density under effect of the aggregation inductor was recorded. The control index MA of plasma was compared with the MA of plasma incubated for 3 minutes with different concentrations of the compounds: from 10^−3 to 10^−7 in vitro experiments or with plasma obtained 15, 30, 60 and 120 minutes after intravenous administration of different doses of the compounds in vivo experiments.
The process of aggregation of thrombocytes was recorded with the help of a computer; on the monitor screen the there were depicted curves reflecting changes of the optical density of the plasma enriched which was taken as a standard 100% compared to the optical density of the non-thrombocyte plasma taken for 0% content of thrombocytes.
Under in vitro conditions a flask was filled with blood plasma enriched with thrombocytes, to which an aggregation inductor ADP was added at a concentration of 10^−5 M, incubated for 3 minutes, and then the compounds according to the invention were introduced directly into the flask. Their action by aggregation of thrombocytes was studied after 3-minute incubation in a wide range of concentrations from 10^−3 to 10^−7 M to minimum concentration of 10^−7 M not inducing no effect of suppressing the aggregation.

[2] = Polarographic study of electrochemical reduction (electrochemical activity); type: physicochemical; details: for i, mkA (polarographic wave current) / −E1/2, V (half-wave potential vs SCE): 37° C., forward trace, average for the group; for i, mkA (polarographic wave current): 9·10^−4 M
Description: The study was carried out on a general-purpose polarograph PU-1 with a two-coordinate recorder of the “LKD” type using a three-electrode thermostatically controlled polarographic cell and mercury dripping electrode (MDE) with forced separation of the drop and a dropping period of 0.5 second. A platinum wire was used as an auxiliary electrode and a saturated calomel electrode (SCE) was used as a control electrode.
2.0% solutions of sodium chloride having pH 7.0, 7.2, 7.4, 7.6 were used as a background; the pH values of the background solution were corrected by a solution of sodium hydroxide. The polarographic cell was filled with 5.0 ml of the background solution and for 5 minutes was purged with nitrogen for removing the dissolved oxygen. Then 0.5 ml of solution of the studied substance was added to the background solution, and the polarogram was recorded as a polarographic wave. The concentration of the compounds in the polarographic cell was 9·10^−4 M.
The pH was measured on the pH-meter with an accuracy of ±0.05 pH units. The polarographic measurements were carried out at a temperature of 37° C. The recording of polarograms of the investigated materials was effected under conditions of DC current at a scanning rate of the potential 10.0 mV/s with a active scanning stroke from a potential 0 to −0.5 V and sweep retrace from a −0.5 V to 0. The electric-current sensitivity was 5.0 mkA. The scale by the coordinate of the potentials was 50.0 mV/cm. The values of potentials of the half-wave E1/2 of the investigated materials are given with respect to the SCE potential.
The polarogram parameters such as a limiting current ilim and E1/2 were determined by the graphic method. The number of electrons participating in the reaction was calculated on the basis of the analysis of the polarographic wave using the Geirovsky-Ilkovich equation.

[3] = tested on: synthase of nitrogen oxide (NOC); assay: Morphine abstinence model: activity of synthase of nitrogen oxide (radiometric, [3H]L-citrulline); type: in vivo, rats Wistar; details: morphine alone
thymus = assay: Morphine abstinence model: thymus condition; type: in vivo, rats; details: morphine alone
Description: The effect of the compounds according to the invention on the condition of the thymus of the rats was also investigated: a control group, an experimental group of morphinized animals and an experimental group of animals were first morphinized and then injected with the compounds according to the invention. The experiment was carried out similarly to that described above.

Compound	MA - fall of optical density of plasma, % to the standard ([1]; 10^−3 M)	MA - fall of optical density of plasma, % to the standard ([1]; 10^−4 M)	MA - fall of optical density of plasma, % to the standard ([1]; 10^−5 M)	MA - drop of optical density, % compared to control ([1]; 10^−6 M)	MA - drop of optical density, % compared to control ([1]; 10^−7 M)	further results
Nc1ncnc2c(=O)n([C@@H]3O[C@H](CO)[C@@H](O)[C@H]3O)[nH]c(=O)c12.[Na] [Compound 31, sodium salt of 4-amino-7-(β-D-ribofuranosile)pyrimido[4,5-d]-6H-pyridazine-5,8-dione]	44.9 ± 2.3 %	46.7 ± 2.2 %	39.9 ± 2.1 %	47.5 ± 1.7 %	49.5 ± 1.2%	
sodium salt of 5-amino-2-(CP(β-D-ribofuranosile)benzo[d]-3H-pyridazine-1,4-dione [Compound 10]	46.2 ± 2.7 %	48.7 ± 2.4 %	40.2 ± 4.0 %	48.4 ± 2.4%	49.8 ± 2.0%	number of electrons participating in the reduction ([2]; calculated with the Geirovsky-Ilkovich equation): 4.09; i, mkA (polarographic wave current) ([2]; pH 7.0): 0.23 ± 0.03 mkA; −E1/2, V (half-wave potential vs SCE) ([2]; pH 7.0): 0.092 ± 0.02 V; i, mkA (polarographic wave current) ([2]; pH 7.2): 0.30 ± 0.01 mkA; −E1/2, V (half-wave potential vs SCE) ([2]; pH 7.2): 0.09 ± 0.01 V; i, mkA (polarographic wave current) ([2]; pH 7.4): 0.29 ± 0.02 mkA; −E1/2, V (half-wave potential vs SCE) ([2]; pH 7.4): 0.092 ± 0.02 V; i, mkA (polarographic wave current) ([2]; pH 7.6): 0.31 ± 0.02 mkA; −E1/2, V (half-wave potential vs SCE) ([2]; pH 7.6): 0.09 ± 0.01 V; half-wave potential more positive on reverse stroke than on forward stroke ([2]; reverse stroke vs forward stroke): 30.0 mV
Nc1cnc2c(=O)[nH][nH]c(=O)c2n1.[Na] [Compound 28, sodium salt of 2-amino-pyrazine[2,3-d]-6H-pyridazine-5,8-dione]	49.7 ± 2.2 %	48.9 ± 2.4 %	44.2 ± 2.7 %		50.4 ± 3.0%	
CN1CC[C@]23c4c5ccc(O)c4O[C@H]2[C@@H](O)C=C[C@H]3[C@H]1C5 [Morphine, reference compound]						activity of the calcium-dependent form NOC in the liver [3]: rise of activity of the calcium-dependent form NOC; activity of the calcium-independent form NOC in the liver [3]: decrease of activity of the calcium-independent form NOC; Nitrites, thymus Supernatant, Administration of morphine (thymus): 0.511 ± 0.05 nmol/mg of protein; Thymus mass, Administration of morphine (thymus): 145 ± 9 mg
O=c1[nH]n([C@@H]2O[C@H](CO)[C@@H](O)[C@H]2O)c(=O)c2ccccc12.[Na] [Compound 9, sodium salt of 2-(β-D-ribofuranosile)benzo[d]-3H-pyridazine-1,4-dione]	47.3 ± 2.0 %	53.1 ± 1.8 %	41.4 ± 3.4 %	49.4 ± 3.2%	51.2 ± 1.7%	
O=c1[nH]n([C@@H]2O[C@H](CO)[C@@H](O)[C@H]2O)c(=O)c2nccc(O)c12.[Na].[Na] [Compound 4, disodium salt of 4-hydroxy-7-(βD-ribofuranosile)pyrido[2,3-d]-6H-pyridazine-5,8-dione]	49.2 ± 2.3 %	50.2 ± 2.0 %	46.2 ± 3.1 %	50.6 ± 3.1%	49.9 ± 3.4%	
